Data published in patent US11015216B2, “Substituted imidazo[1,2-a]pyrazines as luciferase substrates” (PROMEGA CORPORATION, priority 2016, dated 2021).

Legend:
[1] = test system: luciferase; assay: Additional luciferase substrate assay, compared to known analogue C-1 (Table 3); type: biochemical; conditions: relative to C-1 (=1)
Description: (§1) Luminescence Assay Procedure: Each compound to be screened was dissolved in DMSO (5 mM) and then further diluted to 100 uM in NANO-GLOR Luciferase Assay Buffer. Each diluted substrate was then combined in equal volumes with purified NanoLuc® Luciferase diluted into CO2 independent media+10% FBS. Initial light output for each substrate was measured in a GloMax®-Multi+ luminometer three minutes after substrate addition and then at five minute intervals as a means to determine signal half-life.
The compounds of formula (I) were also evaluated for their ability to be luciferase substrates in an additional assay.

[2] = target: NanoLuc® Luciferase (Oplophorus gracilirostris, UniProt Q9GV45, A31E/A60N/A81I/F95D/I117V/K70R/L54V/L99Q/M102K/N193R/P142E/Q151K/Q38R/Q45L/V71I/Y165I); type: biochemical; conditions: ratio to coelenterazine (=1); for I (relative light units, ratio in comparison to native coelenterazine): initial light output three minutes after substrate addition; for Half-life (signal half-life, ratio in comparison to native coelenterazine): read at five minute intervals
Description: as §1
A subset of the synthesized coelenterazine analogues (compounds of formula (I)) were evaluated for their suitability as luciferase substrates. NANOLUC® luciferase was employed for the screening because it is a small (19 kDa), stable, and particularly bright enzyme.

[3] = test system: luciferase; assay: Additional luciferase substrate assay, compared to known analogue C-1 (Table 3); type: biochemical; conditions: relative to C-1 (=1); cell marked (75) instead of @100 uM
[4] = test system: HeLa cells; assay: Cell viability assay, HeLa; type: cell-based; conditions: 24 h incubation, serial dilution, FIGS. 3 and 4
Description: (§2) Cell Culture: HeLa and HEK293 cells were maintained in DMEM containing 0.3 mg/ml glutamine, 100 IU/ml penicillin, 100 μg/ml streptomycin, and 10% fetal calf serum at 37° C. in 5% CO2. Dulbecco's modified eagle medium (DMEM), Opti-MEM, Penicillin/Streptomycin, and Trypsin-EDTA were purchased from Life Technologies (Carlsbad). Fetal calf serum (FBS) was purchased from HyClone (GE Healthcare). Microtiter plates were purchased from Corning.
(§3) Cell viability assay: HEK293 or HeLa cells were plated in […] growth medium (DMEM supplemented with 10% FBS) into wells of white, TC-treated, 96-well plates at a density of 10000 cells per well and incubated for 24 h. The growth medium was then replaced with 100 μl Opti-MEM medium, which contained a serial dilution of the indicated compound. Changes in cell viability were then measured after incubation for 24 h using the […]® Green cell viability assay (Promega) according to manufacturer instructions. All luminescent measurements were performed on a GLOMAX® Discover multimode plate reader (Promega).

[5] = test system: HEK293 cells; assay: Cell viability assay, HEK293; type: cell-based; conditions: Hek293, 24 h incubation, serial dilution; FIGS. 5 and 6
Description: as §2, §3

Sequence of NanoLuc® Luciferase (Q9GV45 other isoform, or with tags, fused parts or gaps with the stated changes): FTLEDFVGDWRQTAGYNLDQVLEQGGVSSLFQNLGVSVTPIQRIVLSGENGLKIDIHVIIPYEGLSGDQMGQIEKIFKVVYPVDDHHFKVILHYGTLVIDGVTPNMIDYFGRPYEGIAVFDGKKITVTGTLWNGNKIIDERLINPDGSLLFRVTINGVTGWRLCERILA

Structure (SMILES)	RLU (@100 uM) [1]	I (relative light units, ratio in comparison to native coelenterazine) [2]	Half-life (signal half-life, ratio in comparison to native coelenterazine) [2]	RLU [3]	compound-induced cellular toxicity compared to coelenterazine [4]	compound-induced cellular toxicity compared to coelenterazine [5]
O=c1c(Cc2ccc(F)cc2)nc2c(Cc3ccccc3)[nH]c(-c3ccccc3)cn1-2 [Compound 2]	0.96	40	0.16			
O=c1c(Cc2c(F)cc(F)cc2F)nc2c(Cc3ccccc3)[nH]c(-c3ccccc3)cn1-2 [Compound 78]	0.21	8.75	0.43			
COc1cc(F)ccc1Cc1nc2c(Cc3ccccc3)[nH]c(-c3ccccc3)cn-2c1=O [Compound 22]				0.3 (75)		
O=c1c(Cc2ccc(F)nc2)nc2c(Cc3ccccc3)[nH]c(-c3ccccc3)cn1-2 [Compound 68]	0.31	12.916	0.93			
CC(C)(C)c1ccc(Cc2nc3c(Cc4ccccc4)[nH]c(-c4ccccc4)cn-3c2=O)cc1 [Compound 5]	0.093	3.875	0.43			
Cn1cc(Cc2nc3c(Cc4ccccc4)[nH]c(-c4ccccc4)cn-3c2=O)c(=O)n(C)c1=O [Compound 16]	0.0001	0.0042	0.005			
O=c1c(Cc2cccnc2)nc2c(Cc3ccccc3)[nH]c(-c3ccccc3)cn1-2 [Compound 64]	0.066	2.75	3.03			
O=c1c(Cc2ccc(Br)nc2)nc2c(Cc3ccccc3)[nH]c(-c3ccccc3)cn1-2 [Compound 70]	0.12	5	0.19			
Cc1ccc(Cc2nc3c(Cc4ccccc4)[nH]c(-c4ccccc4)cn-3c2=O)cn1 [Compound 76]	0.04	1.666	1.14		notably reduced toxicity	notably reduced toxicity
O=c1c(Cc2ccc(F)cc2F)nc2c(Cc3ccccc3)[nH]c(-c3ccccc3)cn1-2 [Compound 3]	0.93	38.75	0.23			
O=c1c(Cc2ccc(CN3CCOCC3)o2)nc2c(Cc3ccccc3)[nH]c(-c3ccccc3)cn1-2 [Compound 81]	0.0059	0.246	1.19			
O=c1c(Cc2cncc(F)c2)nc2c(Cc3ccccc3)[nH]c(-c3ccccc3)cn1-2 [Compound 66]	0.039	1.625	0.98			
N#Cc1cccc(Cc2nc3c(Cc4ccccc4)[nH]c(-c4ccccc4)cn-3c2=O)c1 [Compound 79]	0.33	13.87	0.52			
O=c1c(Cc2csc3ccccc23)nc2c(Cc3ccccc3)[nH]c(-c3ccccc3)cn1-2 [Compound 7]	0.1	4.166	0.52			
O=C(O)c1ccc(Cc2nc3c(Cc4ccccc4)[nH]c(-c4ccccc4)cn-3c2=O)cc1 [Compound 10]	0.0034	0.142	1.02			
O=c1c(Cc2ccc(F)c(O)c2)nc2c(Cc3ccccc3)[nH]c(-c3ccccc3)cn1-2 [Compound 20]				0.29 (75)		
O=c1c(Cc2cccnc2F)nc2c(Cc3ccccc3)[nH]c(-c3ccccc3)cn1-2 [Compound 67]	0.11	4.583	1.14			
COc1cncc(Cc2nc3c(Cc4ccccc4)[nH]c(-c4ccccc4)cn-3c2=O)c1 [Compound 72]	0.029	1.208	0.88			
O=c1c(Cc2ccc(Cl)nc2)nc2c(Cc3ccccc3)[nH]c(-c3ccccc3)cn1-2 [Compound 69]	0.18	7.5	0.35			
CN(C)c1ccc(Cc2nc3c(Cc4ccccc4)[nH]c(-c4ccccc4)cn-3c2=O)cn1 [Compound 77]	0.042	1.75	0.57			
COc1ncc(Cc2nc3c(Cc4ccccc4)[nH]c(-c4ccccc4)cn-3c2=O)cn1 [Compound 15]	0.014	0.583	0.88			
Cc1noc(C)c1Cc1nc2c(Cc3ccccc3)[nH]c(-c3ccccc3)cn-2c1=O [Compound 13]	0.014	0.583	2.64			
Cn1nnc2cc(Cc3nc4c(Cc5ccccc5)[nH]c(-c5ccccc5)cn-4c3=O)ccc21 [Compound 11]	0.0072	0.3	1.04			
COc1ccc(Cc2nc3c(Cc4ccccc4)[nH]c(-c4ccccc4)cn-3c2=O)cc1 [Compound 8]	0.56	23.333	0.38			
O=c1c(Cc2cn3ccsc3n2)nc2c(Cc3ccccc3)[nH]c(-c3ccccc3)cn1-2 [Compound 80]	0.052	2.166	1.62			
Cn1nc(-c2cccs2)cc1Cc1nc2c(Cc3ccccc3)[nH]c(-c3ccccc3)cn-2c1=O [Compound 12]	0.0046	0.192	0.57			
